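How tested: cells in 96-well plates exposed to compound for 48 hours at five concentrations. At the GI50, growth is halved. Definition used: TGI = concentration required for complete inhibition of growth.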
Tests used:
Assay in all cases: DTP human tumour cell line panel, 48 h
OVCAR-3 ovarian = system: OVCAR-3 ovarian
CAKI-1 renal = system: CAKI-1 renal
HCT-15 colon = system: HCT-15 colon
KM12 colon = system: KM12 colon
SW-620 colon = system: SW-620 colon
HCC-2998 colon = system: HCC-2998 colon
DU-145 prostate = system: DU-145 prostate
HT29 colon = system: HT29 colon
HL-60(TB) leukemia = system: HL-60(TB) leukemia
CCRF-CEM leukemia = system: CCRF-CEM leukemia
IGROV1 ovarian = system: IGROV1 ovarian
SNB-19 CNS = system: SNB-19 CNS
NCI/ADR-RES ovarian = system: NCI/ADR-RES ovarian
TK-10 renal = system: TK-10 renal
MDA-MB-435 = system: MDA-MB-435
M14 melanoma = system: M14 melanoma
PC-3 prostate = system: PC-3 prostate
NCI-H522 lung = system: NCI-H522 lung
MDA-MB-231 breast = system: MDA-MB-231 breast
RXF 393 renal = system: RXF 393 renal
HOP-62 NSCLC = system: HOP-62 NSCLC
UACC-62 melanoma = system: UACC-62 melanoma
SK-MEL-2 melanoma = system: SK-MEL-2 melanoma
MALME-3M melanoma = system: MALME-3M melanoma
HCT-116 colon = system: HCT-116 colon
SN12C renal = system: SN12C renal
786-0 renal = system: 786-0 renal
SF-539 CNS = system: SF-539 CNS
UACC-257 melanoma = system: UACC-257 melanoma
BT-549 breast = system: BT-549 breast
HOP-92 NSCLC = system: HOP-92 NSCLC
UO-31 renal = system: UO-31 renal
NCI-H23 lung = system: NCI-H23 lung
NCI-H226 lung = system: NCI-H226 lung
SNB-75 CNS = system: SNB-75 CNS
A549 NSCLC = system: A549 NSCLC
SK-OV-3 ovarian = system: SK-OV-3 ovarian
OVCAR-5 ovarian = system: OVCAR-5 ovarian
SF-268 CNS = system: SF-268 CNS
HS 578T breast = system: HS 578T breast
U251 CNS = system: U251 CNS
COLO 205 colon = system: COLO 205 colon
MOLT-4 leukemia = system: MOLT-4 leukemia
SF-295 CNS = system: SF-295 CNS
A498 renal = system: A498 renal
MCF7 breast = system: MCF7 breast
ACHN renal = system: ACHN renal
SK-MEL-28 melanoma = system: SK-MEL-28 melanoma
RPMI-8226 leukemia = system: RPMI-8226 leukemia
OVCAR-4 ovarian = system: OVCAR-4 ovarian
NCI-H460 lung = system: NCI-H460 lung
SK-MEL-5 melanoma = system: SK-MEL-5 melanoma
EKVX NSCLC = system: EKVX NSCLC

N=C(N)c1ccc(-c2ccc(-c3ccc(F)cc3)o2)o1
GI50 (OVCAR-3 ovarian): 1840 nM | TGI (OVCAR-3 ovarian): 4160 nM | GI50 (CAKI-1 renal): 1710 nM | TGI (CAKI-1 renal): 3560 nM | GI50 (HCT-15 colon): 631 nM | TGI (HCT-15 colon): 2080 nM | GI50 (KM12 colon): 1440 nM | TGI (KM12 colon): 3410 nM | GI50 (SW-620 colon): 943 nM | TGI (SW-620 colon): 2380 nM | GI50 (HCC-2998 colon): 1370 nM | TGI (HCC-2998 colon): 2810 nM | GI50 (DU-145 prostate): 1800 nM | TGI (DU-145 prostate): 3360 nM | GI50 (HT29 colon): 606 nM | TGI (HT29 colon): 1940 nM | GI50 (HL-60(TB) leukemia): 1800 nM | TGI (HL-60(TB) leukemia): 4400 nM | GI50 (CCRF-CEM leukemia): 1840 nM | TGI (CCRF-CEM leukemia): 5570 nM | GI50 (IGROV1 ovarian): 1580 nM | TGI (IGROV1 ovarian): 3350 nM | GI50 (SNB-19 CNS): 1730 nM | TGI (SNB-19 CNS): 4050 nM | GI50 (NCI/ADR-RES ovarian): 1670 nM | TGI (NCI/ADR-RES ovarian): 4100 nM | GI50 (TK-10 renal): 1550 nM | TGI (TK-10 renal): 2920 nM | GI50 (MDA-MB-435): 347 nM | TGI (MDA-MB-435): 1300 nM | GI50 (M14 melanoma): 1230 nM | TGI (M14 melanoma): 2790 nM | GI50 (PC-3 prostate): 1220 nM | TGI (PC-3 prostate): 2570 nM | GI50 (NCI-H522 lung): 1360 nM | TGI (NCI-H522 lung): 2900 nM | GI50 (MDA-MB-231 breast): 1570 nM | TGI (MDA-MB-231 breast): 3330 nM | GI50 (RXF 393 renal): 1600 nM | TGI (RXF 393 renal): 3400 nM | GI50 (HOP-62 NSCLC): 1600 nM | TGI (HOP-62 NSCLC): 3250 nM | GI50 (UACC-62 melanoma): 1740 nM | TGI (UACC-62 melanoma): 3270 nM | GI50 (SK-MEL-2 melanoma): 1760 nM | TGI (SK-MEL-2 melanoma): 3390 nM | GI50 (MALME-3M melanoma): 1630 nM | TGI (MALME-3M melanoma): 3260 nM | GI50 (HCT-116 colon): 1180 nM | TGI (HCT-116 colon): 2590 nM | GI50 (SN12C renal): 1800 nM | TGI (SN12C renal): 3650 nM | GI50 (786-0 renal): 1660 nM | TGI (786-0 renal): 3490 nM | GI50 (SF-539 CNS): 1630 nM | TGI (SF-539 CNS): 3080 nM | GI50 (UACC-257 melanoma): 1980 nM | TGI (UACC-257 melanoma): 3690 nM | GI50 (BT-549 breast): 2270 nM | TGI (BT-549 breast): 7190 nM | GI50 (HOP-92 NSCLC): 1210 nM | TGI (HOP-92 NSCLC): 2950 nM | GI50 (UO-31 renal): 1430 nM | TGI (UO-31 renal): 2780 nM | GI50 (NCI-H23 lung): 1930 nM | TGI (NCI-H23 lung): 4880 nM | GI50 (NCI-H226 lung): 2820 nM | TGI (NCI-H226 lung): 9710 nM | GI50 (SNB-75 CNS): 1550 nM | TGI (SNB-75 CNS): 3490 nM | GI50 (A549 NSCLC): 1650 nM | TGI (A549 NSCLC): 3300 nM | GI50 (SK-OV-3 ovarian): 2320 nM | TGI (SK-OV-3 ovarian): 7140 nM | GI50 (OVCAR-5 ovarian): 1660 nM | TGI (OVCAR-5 ovarian): 3400 nM | GI50 (SF-268 CNS): 1920 nM | TGI (SF-268 CNS): 4670 nM | GI50 (HS 578T breast): 1950 nM | TGI (HS 578T breast): 4820 nM | GI50 (U251 CNS): 1600 nM | TGI (U251 CNS): 3080 nM | GI50 (COLO 205 colon): 1600 nM | TGI (COLO 205 colon): 3150 nM | GI50 (MOLT-4 leukemia): 1600 nM | TGI (MOLT-4 leukemia): 4680 nM | GI50 (SF-295 CNS): 1510 nM | TGI (SF-295 CNS): 3050 nM | GI50 (A498 renal): 1900 nM | TGI (A498 renal): 5950 nM | GI50 (MCF7 breast): 685 nM | TGI (MCF7 breast): 2380 nM | GI50 (ACHN renal): 1600 nM | TGI (ACHN renal): 2970 nM | GI50 (SK-MEL-28 melanoma): 1630 nM | TGI (SK-MEL-28 melanoma): 3180 nM | GI50 (RPMI-8226 leukemia): 2480 nM | TGI (RPMI-8226 leukemia): 6100 nM | GI50 (OVCAR-4 ovarian): 1620 nM | TGI (OVCAR-4 ovarian): 3200 nM | GI50 (NCI-H460 lung): 1760 nM | TGI (NCI-H460 lung): 3360 nM | GI50 (SK-MEL-5 melanoma): 1560 nM | TGI (SK-MEL-5 melanoma): 2920 nM | GI50 (EKVX NSCLC): 1350 nM | TGI (EKVX NSCLC): 3180 nM

From PubChem BioAssay (NCI)
